Patent US6057359A, “Spontaneously dispersible concentrates comprising esters of baccatin-III compounds having antitumor and antiviral activity” (Marigen S.A., priority 1997, dated 2000)

How the values were obtained:
[1] = tested on: Py6 cells (Virus transformed 3T3 mouse-fibroblasts); test: Test of cell toxicity / cytotoxicity of MARIGENOL concentrates on Py6 cells (plaque assay, serial dilution); format: cell-based; details: for in dilution active up to 1: (microemulsion ME 1:100): dilution of ME 1:100, given in Mio.
Protocol: A biological assay system using microtiter plates and serial dilutions has been developed. Batches of 10^4 tumour cells per ml were set up in culture medium RPMI 1640 and inactivated with 10% of fetal calf serum (GIBCO); they are spread at a density low enough to enable them to grow during the assay, in non-confluent monolayers. Samples are added after 6 to 24 hours, with 100 μl per row, to which 100 μl of medium are added in the first well. Half of this mixture is withdrawn, transferred into the next well and again treated with 100 μl of medium, etc.
[…] They are then stained and fixed using 0.1% crystal violet (Fluka, Buchs) in a solution of 70% of methanol, 1% of formaldehyde and 29% of water. The samples are evaluated under the microscope, magnification 300×. The greatest cytotoxic dilution is determined. The samples can also be evaluated quantitatively by means of scanning and absorption measurement in a spectrophotometer.
N.B.: On the subject of the eternalized Py6-cells cf.: "Biochemistry", Coordinating Editor Geoffrey L. Zubay, Addison-Wesley Publishing Company, 1983, p.1079.

[2] = tested on: LEUKEMIA K 562; test: Vitality/proliferation test (Tritium), leukemia K 562; format: cell-based, human; details: controls 50'037 cpm
Excerpt: (§1) 4.0 Comparative assays with human tumor cell lines
(§2) VITALITY TEST/1%-MARIGENOL-CONCENTRATE
(§3) 1 × 10^4 cells per well
(§4) Proliferation test (Tritium: 1 μCi/well H^+)

[3] = tested on: LEUKEMIA DAUDI-LINE; test: Vitality/proliferation test (Tritium), leukemia Daudi-line; format: cell-based, human; details: controls 23'090 cpm
Excerpt: as §1, §2, §3, §4

[4] = tested on: HIV isolates from patients (strains 21/4 and 4/5); test: Effect on HIV infectivity, residual HIV titre (direct antiviral efficacy); format: cell-based
Protocol: Aliquote amounts of two HIV isolates from patients (strains 21/4 and 4/5) resuspended in complete RPMI medium at a titre of 300 CCID50 /ml were incubated during 3 hours, +4° C. with MARIGENOL®-concentrate, in the form of an aqueous microemulsion, at concentrations ranging from 10^-2 to 10^-5 in complete medium, as well as with ("empty") carrier concentrate and with medium alone as controls.
After pre-incubation, residual HIV titre was assessed by the CCID50 method (Cell-culture infecting dose 50%). Briefly, serial twofold dilutions were prepared from each of the six virus suspensions, and 200 μl of each dilution were incubated for 90 minutes with MT-4 cell pellets prepared as stated before (see 7.1). At the end of incubation, pellets were brought to initial cell concentration by adding appropriate amounts of complete RPMI medium to each tube, whose content was then distributed into 8 wells of a flat-bottom microtitre plate in 200 μl volumes, each vertical row coresponding to a dilution. After 5 days of incubation, cell viability was assessed by the MTT test as stated above, and the HIV titre was expressed as the reciprocal of that dilution which infects 4 out of 8 wells (50%) in a row. A well was considered infected when its O.D. readout at 550 nm was lower than the average readout of 8 control wells minus 2.8 times the standard error of the mean (lower 95% confidence limit).

[5] = tested on: Herpes-Virus (Herpes Simplex, HSV); test: Antiviral/virucidal efficacy against HSV, plaque reduction in VERO cells; format: cell-based; details: compared to simple medium, 2880 min
Protocol: (§5) The antiviral/virucidal efficacy against HSV of an aqueous microemulsion prepared with appropriate MARIGENOL®-concentrates was assessed on a confluent monolayer culture of VERO cells (i.e. "African green monkey kidney cells"). The host cells were pretreated during 3 h at 4° C. with an inventive microemulsion or with culture medium alone and then infected with HSV at a constant dose of 10^4 plaque forming units (PFU). After virus absorption during 1 h, and subsequent addition of 2% methylcellulose in order to limit virus spreading, cells were cultured in MEM medium+2% foetal calf serum for 48 h, then fixed and stained with 1% crystal violet in methanol. The reduction of viral titre was expressed as percent reduction of plaques of lysis observed in pre-treated cells, compared to controls.
Infection was also detected by IFA at 24 h after inoculation, using a Mab specific for a glycoprotein common to HSV-1/HSV-2 (clone FQ 12, Argene Biosoft, BIOLINE, Torino).
The following test substances were assessed as concentrates in aqueous dilution (starting with a microemulsion 1:100): […]

[6] = tested on: VERO cells; test: Cell lysis in VERO cell layers; format: cell-based, African green monkey; details: dilution 1:1'000; plaque reduction table
Protocol: as §5

| Compound | in dilution active up to 1: (calculated on active substance content, A.S.) ([1]; 24 h exposure) | in dilution active up to 1: (calculated on active substance content, A.S.) ([1]; 48 h exposure) | in dilution active up to 1: (calculated on active substance content, A.S.) ([1]; 72 h exposure) | Proliferation test % ([2]; 10^-3) | Proliferation test cpm ([2]; 10^-3) | Proliferation test % ([2]; 10^-4) | Proliferation test cpm ([2]; 10^-4) | Proliferation test % ([2]; 10^-5) | Proliferation test % ([3]; 10^-3) | Proliferation test cpm ([3]; 10^-3) | Proliferation test % ([3]; 10^-4) | Proliferation test cpm ([3]; 10^-4) | Proliferation test % ([3]; 10^-5) | further results |
| --- | --- | --- | --- | --- | --- | --- | --- | --- | --- | --- | --- | --- | --- | --- |
| CCCCCCCCCCCCCCCC(=O)Oc1ccc(-c2oc3cc(OC(=O)CCCCCCCCCCCCCCC)cc(OC(=O)CCCCCCCCCCCCCCC)c3c(=O)c2OC(=O)CCCCCCCCCCCCCCC)c(OC(=O)CCCCCCCCCCCCCCC)c1 [MOREN-PENTA-PALMITATE] | 6.4 Mio. | 51.2 Mio. | 51.2 Mio. | – | – | – | – | – | – | – | – | – | – | – |
| CCCCCCCCCCCC(=O)Oc1cc(OC(=O)CCCCCCCCCCC)c2c(=O)cc(-c3ccccc3)oc2c1 [CHRYSIN-DI-LAURATE] | 12.8 Mio. | 51.2 Mio. | 100 Mio. | – | – | – | – | – | – | – | – | – | – | in dilution active up to 1: (microemulsion ME 1:100) ([1]; 72 h exposure): 1 Mio. |
| CCCCCCCCCCCC(=O)Oc1ccc(-c2oc3cc(OC(=O)CCCCCCCCCCC)cc(OC(=O)CCCCCCCCCCC)c3c(=O)c2OC(=O)CCCCCCCCCCC)c(OC(=O)CCCCCCCCCCC)c1 [MORIN-PENTA-LAURATE] | 12.8 Mio. | 100 Mio. | 100 Mio. | – | – | – | – | – | – | – | – | – | – | in dilution active up to 1: (microemulsion ME 1:100) ([1]; 48 h exposure): 1 Mio.; in dilution active up to 1: (microemulsion ME 1:100) ([1]; 72 h exposure): 1 Mio. |
| C=CCCCCCCCCC(=O)O[C@H]1C[C@@]2(O)[C@@H](OC(=O)c3ccccc3)[C@@H]3[C@]4(OC(C)=O)CO[C@@H]4C[C@H](OC(=O)CCCCCCCCC=C)[C@@]3(C)C(=O)[C@H](OC(C)=O)C(=C1C)C2(C)C [BACCATIN III-DI-UNDECENOATE, 7,13-Baccatin-III-diundecenoate] | 12.8 Mio. | 25.6 Mio. | 100 Mio. | 0.9% | 466 cpm | 1.3% | 665 cpm | 9.5% | 1.2% | 293 cpm | 2.8% | 653 cpm | 41.7% | in dilution active up to 1: (microemulsion ME 1:100) ([1]; 72 h exposure): 1 Mio. |
| CC(=O)O[C@H]1C(=O)[C@@]2(C)[C@H]([C@H](OC(=O)c3ccccc3)[C@]3(O)C[C@H](OC(=O)[C@H](O)[C@@H](NC(=O)c4ccccc4)c4ccccc4)C(C)=C1C3(C)C)[C@]1(OC(C)=O)CO[C@@H]1C[C@@H]2O [TAXOL-A.S., Taxol (Paclitaxel), reference compound] | 6.4 Mio. | 25.6 Mio. | 25.6 Mio. | 1.3% | 679 cpm | 1.6% | 830 cpm | 7.1% | 2.3% | 552 cpm | 2.9% | 672 cpm | 69.6% | – |
| CCCCCCCCCCCC(=O)O[C@H]1C[C@@]2(O)[C@@H](OC(=O)c3ccccc3)[C@@H]3[C@]4(OC(C)=O)CO[C@@H]4C[C@H](OC(=O)CCCCCCCCCCC)[C@@]3(C)C(=O)[C@H](OC(C)=O)C(=C1C)C2(C)C [BACCATIN III-DI-LAURATE, 7,13-Dilauroylbaccatin-III] | 12.8 Mio. | 12.8 Mio. | 25.6 Mio. | 1.1% | 585 cpm | 1.3% | 651 cpm | 6.1% | 1.4% | 346 cpm | 1.9% | 455 cpm | 38.3% | – |
| C=CCCCCCCCCC(=O)O[C@H]1CC[C@@]2(C)C(=CC=C3[C@@H]4CC[C@H]([C@H](C)/C=C/[C@H](C)C(C)C)[C@@]4(C)CC[C@@H]32)C1 [ERGOSTERYL-10-UNDECENOATE, (3β, 22E)-Ergosta-5,7,22-triene-3-ol-10-undecenoate] | – | – | – | – | – | – | – | – | – | – | – | – | – | RESIDUAL HIV TITRE (CCID50) ([4]; concentrate 1'000 ppm, active substance 10 ppm, mean titre of 2 strains, 3 h, +4° C.): 25 CCID50; inhibition of HIV infectivity ([4]; pre-treatment with 1%-concentrate): somewhat less potent inhibition |
| CCCCCCCCCCCCCCCC(=O)Oc1cc(OC(=O)CCCCCCCCCCCCCCC)c2c(=O)cc(-c3ccccc3)oc2c1 [CHRYSIN-DI-PALMITATE] | 12.8 Mio. | 51.2 Mio. | 51.2 Mio. | – | – | – | – | – | – | – | – | – | – | – |
| CCCCCCCCCCCCCCCCCCCC(=O)O[C@H]1CC[C@@]2(C)C(=CC[C@H]3[C@@H]4CC[C@H]([C@H](C)CC[C@@H](CC)C(C)C)[C@@]4(C)CC[C@@H]32)C1 [β-Sitosteryl-Arachidate, 3β-Stigmast-5-en-3-arachidate] | – | – | – | – | – | – | – | – | – | – | – | – | – | Percent reduction of plaques in VERO cell monolayers ([5]; dilution 1:10'000): 76%; Percent reduction of plaques in VERO cell monolayers ([5]; dilution 1:100'000): 5%; Cell-Lysis [6]: Cell-Lysis |
| CCCCCCCCCCCC(=O)O[C@H]1CC[C@@]2(C)C(=CC=C3[C@@H]4CC[C@H]([C@H](C)/C=C/[C@H](C)C(C)C)[C@@]4(C)CC[C@@H]32)C1 [C12:0 -ERGO ESTER (ERGOST. LAURATE), (3β, 22E)-Ergosta-5,7,22-triene-3-ol-laurate] | – | – | – | – | – | – | – | – | – | – | – | – | – | Percent reduction of plaques in VERO cell monolayers ([5]; dilution 1:10'000): 62%; Percent reduction of plaques in VERO cell monolayers ([5]; dilution 1:100'000): 0%; Cell-Lysis [6]: Cell-Lysis |
| 7-Baccatin III-all trans-retinoate | 12.8 Mio. | 25.6 Mio. | 25.6 Mio. | 0.8% | 415 cpm | 1.6% | 822 cpm | 15.0% | 1.1% | 256 cpm | 1.7% | 412 cpm | 52.7% | – |
